# Test system: circulating CXCL1, CXCL2, CXCL5, CXCL6, CXCL7 and CXCL8
# Experiment: Circulating cytokine analyses (Luminex, ELISA) in patient serum
# Type: in vivo, human
# Conditions: serial serum samples
# Method: Serum samples were collected at baseline, on day 1 of every cycle, and on cycle 1 day 15. CXCL2, CXCL5, CXCL6, CXCL7 and CXCL8 were measured in patient serum (diluted 1:2 except for CXCL7, which was diluted 1:200), then analysed using R&D Systems Luminex discovery assays using the Luminex 200 and interpolated using a five-parameter logistic curve fit. CXCL1 was measured in neat patient serum using the R&D Systems human GROα Quantikine ELISA using the Perkin Elmer Envision 2103 Multilabel plate reader and interpolated using linear regression. The Luminex and ELISA assays were validated to good clinical practice compliance by The ICR and included quality control samples of serum, unspiked or spiked with recombinant protein standard, from healthy volunteer serum in every analytical run. A list of the ELISA reagents is provided in Supplementary Table 9.
smiles,measurement,value
C[C@@H](Oc1cc(NS(=O)(=O)N2CCC2)nc(SCc2cccc(F)c2F)n1)[C@@H](O)CO [AZD5069],"levels of circulating CXCL1, CXCL2 and CXCL8 after treatment",increased in a dose-dependent manner
same,"levels of circulating CXCL5, CXCL6 and CXCL7 after treatment",did not consistently increase
